Where a name gives a salt, the structure may show the parent alone.

What all share (format): in vivo, human
The test system of one assay is alopecia areata. Description: Clinical pilot study of topical sodium sucrose sulfate in alopecia: alopecia areata. Also on record: key: very good in cases of definite cosmetic benefit; good in cases of significant regrowth of new hair, but not to an extend that is cosmetically apparent at distance; no effect in cases of no or only marginal regrowth of hair. To be noted: 5 female patients aged 39 to 46 years, treated 2 to 9 months, 3% solution topically. The method, then: (§1) During a 11 month period (April 1989 to March 1990), a total of 50 patients participated in a pilot study, evaluating the effect of the sodium salt of sucrose sulfate administered topically for the treatment of alopecia.
(§2) The test preparation was a 3% solution of Na-sucrose sulfate in a vehicle of 50% water/25% ethanol/25% propylene glycol (w/w), dispensed in 35 ml bottles with a sponge for topical administration on the scalp. The test preparation was applied morning and evening on the scalp, preferably on areas of partial or total alopecia. In average the patients have been using one bottle per month.
(§3) All patients were recruited by one dermatologist, and the effect of treatment was evaluated clinically by the same investigator, at monthly clinic visits.
(§4) The clinical effect was classified as very good in cases of definite cosmetic benefit, as good in cases of significant regrowth of new hair, but not to an extend that is cosmetically apparent at distance, and as no effect in cases of no or only marginal regrowth of hair.
5 Female patients with alopecia areata aged from 39 years to 46 years were treated for periods from 2 to 9 months, the treatment showing a very good effect.

The test system of the next assay is Ludwig type alopecia. Nature of the assay: Clinical pilot study of topical sodium sucrose sulfate in alopecia: Ludwig type alopecia in females. To be noted: 5 females aged 20-49 years, treated 6-8 months, 3% solution topically. On the procedure: as §2, §3, §4
5 Females aged from 20-49 years with Ludwig type alopecia were treated with the test drug for 6-8 months.

The test system of the next assay is underlying discoid LE. Description: Clinical pilot study of topical sodium sucrose sulfate in alopecia: underlying discoid LE. Details: key: very good in cases of definite cosmetic benefit; good in cases of significant regrowth of new hair, but not to an extend that is cosmetically apparent at distance; no effect in cases of no or only marginal regrowth of hair. To be noted: 2 female patients, treated 2 and 4 months; regrowth except for the very center of the lesion. The method, then:
as §1, §2, §3, §4
2 female patients with underlying discoid LE were successfully treated for 2 and 4 months, respectively, with a very good effect comprising regrowth of hair except for the very center of the lesion.

For assay [1], the system named is Male androgenic alopecia. Description: Clinical pilot study of topical sodium sucrose sulfate in alopecia: male androgenic alopecia. Also on record: key to clinical effect: very good in cases of definite cosmetic benefit; good in cases of significant regrowth of new hair, but not to an extend that is cosmetically apparent at distance; no effect in cases of no or only marginal regrowth of hair. To be noted: for clinical effect: 4 patients; for Clinical effect Good (number of patients) / Clinical effect No effect (number of patients) / Clinical effect Very good (number of patients): 3% solution topically morning and evening, about 3 to 9 months. The method, then: During a 11 month period (April 1989 to March 1990), a total of 50 patients participated in a pilot study, evaluating the effect of the sodium salt of sucrose sulfate administered topically for the treatment of alopecia. The test preparation was a 3% solution of Na-sucrose sulfate in a vehicle of 50% water/25% ethanol/25% propylene glycol (w/w), dispensed in 35 ml bottles with a sponge for topical administration on the scalp. The test preparation was applied morning and evening on the scalp, preferably on areas of partial or total alopecia. In average the patients have been using one bottle per month. All patients were recruited by one dermatologist, and the effect of treatment was evaluated clinically by the same investigator, at monthly clinic visits. The clinical effect was classified as very good in cases of definite cosmetic benefit, as good in cases of significant regrowth of new hair, but not to an extend that is cosmetically apparent at distance, and as no effect in cases of no or only marginal regrowth of hair. Male androgenic alopecia was the clinical diagnosis in 35 patients, their age ranging from 17 years to 50 years. Period of treatment was about 3 months in 15 case, about 6 months in 10 cases, and about 9 months in 10 cases.

Assay [2] deals with subtotal or total alopecia, with underlying atopic dermatitis. Nature of the assay: Clinical pilot study of topical sodium sucrose sulfate in alopecia: subtotal or total alopecia. To be noted: 3% solution topically. On the procedure:
as §1, §2, §3, §4
2 Patients suffered from subtotal or total alopecia, with underlying atopic dermatitis.

Assay [3] relates to very bad hair condition and underlying psoriasis. Nature of the assay: Clinical pilot study of topical sodium sucrose sulfate in alopecia: bad hair condition with psoriasis. Details: key: very good in cases of definite cosmetic benefit; good in cases of significant regrowth of new hair, but not to an extend that is cosmetically apparent at distance; no effect in cases of no or only marginal regrowth of hair. To be noted: one person, treated for 9 months, 3% solution topically. The method, then:
as §1, §2, §3, §4
One person with very bad hair condition and underlying psoriasis was treated for 9 months and a very good effect on the test drug was obtained.

Assay [4] deals with hair loss secondary to anti-cancer treatment. Description: Pilot study of sodium sucrose sulfate, prophylactic and therapeutic, in hair loss secondary to anti-cancer treatment. The text has this:
The test preparation containing sodium sucrose sulfate from Example 11 was used both prophylactically and therapeutically in a few patients undergoing radiation and/or cytostatic anti-cancer treatment. One person started the treatment with the test preparation immediately after the anti-cancer treatment was instituted, applying the test preparation twice daily on eyebrows and eyelashes on the right side, and the left side served as untreated control. The treatment lasted four weeks. […] Another four females - also on anti-cancer treatment - used the test preparation twice daily, topically on the scalp after the hair was lost.

The subject of assay [5] is Male androgenic alopecia. Nature of the assay: Clinical pilot study of topical micronized sucralfate in alopecia: male androgenic alopecia. The text has this: (§5) A composition containing micronized sucralfate (<5 µm, Giulini Chemie, Germany) 5%, ethanol 25%, propylene glycol 25%, and distilled water 45%, was used in two daily applications on the scalp, the composition being dispensed in a bottle with sponge applicator. The average consumption of the test preparation in individual patients was about one bottle per month. […] The effects were lasting after stopping the treatment for about 4 months.

The subject of assay [6] is common male-pattern baldness. Nature of the assay: Treatment with sucralfate cream of common male-pattern baldness (single case, Example 14). To be noted: 10% w/w sucralfate preparation, two daily topical applications, person, after 3-4 weeks. From the text: At the beginning, a "plume" appeared in the area, and after a few days the "plume" began turning into real hairs and 8 days after, there were dozens of real hairs which were indistinguishable from other hairs of the scalp, apart from being shorter and all coloured in the original colour of the hair, in contrast to the existing hair, which was partially greyed.

The test system of a further assay is total alopecia. Nature of the assay: Clinical pilot study of topical micronized sucralfate in alopecia: total alopecia. To be noted: one patient, total alopecia for 20 years, 5% micronized sucralfate twice daily for 6 weeks.
Description: as §5

Where [7] appears, read: age group 17-25 years, 20 patients.
[8] abbreviates: age group 25-40 years, 10 patients.
Where [9] appears, read: age group >40 years, 5 patients.

`O=S(=O)(O)OC[C@H]1O[C@@](COS(=O)(=O)O)(O[C@H]2O[C@H](COS(=O)(=O)O)[C@@H](OS(=O)(=O)O)[C@H](OS(=O)(=O)O)[C@H]2OS(=O)(=O)O)[C@@H](OS(=O)(=O)O)[C@@H]1OS(=O)(=O)O` [sodium sucrose sulfate, Sodium sucrose octasulfate]: the clinical effect entry in the assay with alopecia areata is given as “very good”; with underlying discoid LE it was “very good”; with Male androgenic alopecia [1] (age group 17-25, previously failed on minoxidil, 3% solution topically) it was “no effect”; in the assay on Male androgenic alopecia [1] (age group 25-40, previously failed on minoxidil, 3% solution topically), “good”; in assay [3], “very good”. In addition, the “number of patients with good effect” value with Ludwig type alopecia is 3 patients. Besides, the “number of patients with only a marginal effect” value in the assay on Ludwig type alopecia worked out at 2 patients. For the same compound, the “Clinical effect Good (number of patients)” value was found to be 8 with Male androgenic alopecia [1] (setting [7]), 2 in the assay with Male androgenic alopecia [1] (setting [8]) and 2 in the assay with Male androgenic alopecia [1] (setting [9]). For the same compound, the entries for the “Clinical effect No effect (number of patients)” value in the assay with Male androgenic alopecia [1] (setting [7]), with Male androgenic alopecia [1] (setting [8]) and in the assay on Male androgenic alopecia [1] (setting [9]) were 4, 2 and 2, respectively. The “Clinical effect Very good (number of patients)” value with Male androgenic alopecia [1] (setting [7]) amounted to 8; with Male androgenic alopecia [1] (setting [8]), 4. In the assay on Male androgenic alopecia [1] (patients responding to the treatment, whole pilot study, typical value), the “time of treatment until hair-growing effect apparent” value is listed as about 1 month. The “effect in comparison to topically applied minoxidil (Regain®)” value in the assay on Male androgenic alopecia [1] (whole pilot study, 3% solution topically) is recorded as “markedly better effect”. In addition, in assay [2] (person with 2-3 years of alopecia, treatment for 8 months), the effect of treatment entry is reported as “only little effect”. The regrowth of hair result in assay [2] (person, bald for 20 years, treatment for 10 months) was “complete regrowth of hair”. In addition, the “regrowth of hair after loss” value in assay [4] (four females on anti-cancer treatment, twice daily topically on the scalp after the hair was lost) is on record as “much faster regrowth of hair than normally”. Moreover, in assay [4] (one on anti-cancer treatment, twice daily on right side for four weeks, left side untreated control (lost)), the “prevention of loss of eyebrows and eyelashes” value was “eyebrows and eyelashes remained”.

Consider “sucrose octakis(hydrogen sulfate) aluminium complex [sucralfate]”, for which the regrowth of hair entry in the assay with Male androgenic alopecia [5] (one person, Hamilton grade 3, 5% micronized sucralfate twice daily for two months) is reported as “dense regrowth of small terminal hairs”; in the assay on Male androgenic alopecia [5] (six male patients aged 30 to 48 years, Hamilton grade 3 and 4, 5% micronized sucralfate twice daily for 3 to 6 months, all six cases) it was “definite regrowth of terminal hairs”; in the assay on total alopecia, “dense regrowth of fine short terminal hairs all over the scalp”. The “duration of effects after stopping the treatment” value with Male androgenic alopecia [5] (one person, Hamilton grade 3, after two months of treatment) is “about 4 months”. In addition, the “time of treatment until effect seen” value in the assay on Male androgenic alopecia [5] (six male patients, Hamilton grade 3 and 4, typical value) is given as 6-8 weeks. Further, the appearance of hair result in [6] is reported as “appearance of hair in the otherwise bald lateral-frontal areas”.

For the origin of these results see patent EP0469010B1, “COSMETIC COMPOSITION” (priority 1989, dated 1990).
